Test [1] concerns human umbilical vein endothelial cells (HUVEC). Nature of the test: differentiation of human umbilical vein endothelial cells (HUVEC). The class given is cell-based. To be noted: for differentiation of HUVEC, dose dependence: versus vehicle treated cells (proliferation, no differentiation). The text has this:
FIG. 2. illustrates a series of micrographs showing differentiation of vessel endothelial cells (HUVEC) induced by angioenhancin compounds of formula I and II. Panels a & b represent the vehicle treated cells showing proliferation but no sign of differentiation.

Test [2] deals with ischemic hearts. The test can be described thus: echocardiography assessment of heart function in cCHD rats. The class given is in vivo, SD rats. To be noted: 5 mg/kg, echocardiography day 2, 7 and 14, progressively lowered in vehicle treated rats. As for the experimental part: (§1) The subclinical cCHD rat model was produced as described. Briefly, male Sprague-Dawley (SD) rats, weighing 150-200 g, were used. Following proper anesthesia, left thoracotomy was performed on the animals. The pericardium was opened and a probe or surgical suture thread (11-0) was placed onto the epicardium along the LAD. […] The experimental rats with ST segment constantly depressed above 0.1 mV were selected and randomly divided into two groups. […] The rats in vehicle-treated group (n=6) were treated with equivalent period and amount of H2O. For the sham operation group (n=6), left thoracotomy was performed and the pericardium was opened but with no LAD ligation.
Echocardiography Assessment of Heart Function. In all, 12 SD rats received baseline echocardiography before any experimental procedures. Echocardiography was recorded under controlled anesthesia using a Toshiba Aplio XG Echocardiography with PLT-1202S linear array transducer S10-MHz phased-array transducer. M-mode tracing and 2-dimensional (2D) echocardiography images were recorded from the parasternal long- and short-axis views. Short axis view was at the papillary muscles level. Left ventricular end-systolic and end-diastolic dimensions, as well as systolic and diastolic wall thickness, were measured from the M-mode tracings by using the leading-edge convention of the American Society of Echocardiography. For each M-mode measurement, at least three consecutive cardiac cycles were sampled. All rats in both groups received echocardiography measurements on day 2, 7 and 14 post ligation.

The subject of test [3] is infarcted hearts. Nature of the test: myocardial infarction rat model (permanent LAD ligation), neovascularization in infarct zone. The test is classed as in vivo, Sprague-Dawley rats. The note with it: vehicle-treated: mainly fibrosis. As to the method: Myocardial infarction (MI) animal model was induced in male Sprague-Dawley rats (300-350 g) by permanent ligation of the left anterior descending (LAD) coronary artery. The experimental rats were anesthetized with intraperitoneal pentobarbital (50 mg/kg), intubated, and mechanically ventilated with room air. The angioenhancin compound of formula I or formula II (2 mg/kg), dissolved in water (0.5 ml), was orally administrated to MI rats (n=6) for one day post ligation, daily for two weeks with equivalent amount of water to the vehicle-treated rats (n=6). For sham-operated rats (n=5), thoracotomy was performed without ligation. Animals were sacrificed after final echocardiography measurements.
Evaluation of neovascularization in infarcted hearts. Echocardiography was recorded on day 7 and 14 post operations. The hearts of the sacrificed rats were removed and washed with PBS. For histological studies, the left ventricles of the experimental rats were removed and cut from apex-to-base in 3 transverse slices and embedded in paraffin. To quantify the density of capillaries in infarct zones, the vessels were counted and averaged in 6 randomly selected high power view fields (HPF, 40×) on each section. Blinded capillary counts were performed on 6 hearts per group by two investigators. The results were expressed as mean±SD capillaries per HPF.

Test [4] deals with human aorta endothelial cells (HAEC). The test can be described thus: capillary-like tube formation of human aorta endothelial cells on fibrin matrix. To be noted: for Approx. No. of Tubes: HAEC on fibrin matrix, Ctrl 9; for Approx. No. of Tubes / capillary-like networks compared to vehicle-treated cells: 22 hours; for capillary-like networks compared to vehicle-treated cells: HAEC.
Procedure: Cells were incubated at 37° C. and equilibrated in 95% air-5% CO2. Fibrin matrices were prepared by polymerization of fibrinogen solution (5 mg fibrinogen/ml serum-free medium) using low concentrations of α-thrombin (2.5 U/ml). After polymerization, gels were soaked in culture medium containing 10% FBS for 2 h at 37° C. to inactivate the thrombin. HAEC were seeded on the surface of the three-dimensional matrix in 96-well plates in Ham's F-12 medium and cultured for 22 hours with different concentrations of angioenhancin compounds of formula I and formula II in a growth medium. Non-treated control was added with equivalent amount of growth medium. Images were captured and the angiogenic properties were determined by calculating the total number of tubes formed.

Test [5] concerns VEGF, VEGFR, EGF and FGF. The test can be described thus: RT-PCR of angiogenesis-associated genes in treated heart tissues and endothelial cells. The class given is in vivo.
Test [6] deals with ischemic zone of myocardium. The test can be described thus: subclinical chronic coronary heart disease (cCHD) rat model (partial LAD ligation), neovascularization in ischemic zone. The note with it: for vascular density in treated ischemic hearts versus vehicle-treated hearts (FIG. 4): 2 weeks post ligation; for chronic ischemic heart histology, 2 weeks post LAD partial ligation (FIG. 4): compared with vehicle-treated hearts (C1). The test is classed as in vivo, Sprague-Dawley (SD) rats. As for the experimental part: as §1
Measurement of neovascularization in the ischemic zone. Left ventricles from the rats sacrificed on day 14 post-ligation were removed and sliced from apex to base in 3 transverse slices. The slices were fixed in formalin and embedded in paraffin. Vascular density was determined on the histology section samples by counting the number of vessels within the ischemic zone using a light microscope under a high power field (HPF) (40×). Eight random and non-overlapping HPFs within the ischemic field were used for counting all the vessels in each section. The number of vessels in each HPF was averaged and expressed as the number of vessels per HPF. Vascular counts were performed by two investigators in a blind fashion.
The capillary density in the ischemic zone of the angioenhancin treated myocardium was on average 12 capillaries (12±3.8) filled with blood cells per HPF, calculated from 8 randomly selected view fields on each of the 3 slides from 6 angioenhancin treated hearts on day 14.

`O=C(OC1OC2COC(=O)c3cc(O)c(O)c(O)c3-c3c(cc(O)c(O)c3O)C(=O)OC2C2OC(=O)c3cc(O)c(O)c(O)c3-c3c(cc(O)c(O)c3O)C(=O)OC12)c1cc(O)c(O)c(O)c1` (centres unmarked) [Formula II, Potentillin]: the “differentiation of HUVEC (cell phenotype, FIG. 2)” value is “refractive and elongated cells” in test [1] (10 μg/ml); “thin and elongated phenotype with the typical characteristic of differentiation of vessel endothelial cells” in test [1] (20 μg/ml); “thin, elongated and circled phenotype forming tube-like structures” in test [1] (40 μg/ml). Besides, the “differentiation of HUVEC, dose dependence” value in test [1] is recorded as “enhanced differentiation of HUVEC in a dose dependent manner”. Further, in test [2], the “left ventricle ejection fraction (LVEF)” value is “progressively restored”. In addition, the “left ventricle fraction shortening (LVFS)” value in test [2] is listed as “progressively restored”. Besides, the “infarcted region histology, 2 weeks post LAD ligation (FIG. 4)” value in test [3] is “many newly formed vessels filled with red blood cells observed”. In addition, the figures for the “Approx. No. of Tubes” value in test [4] (5 μg/ml), in test [4] (10 μg/ml) and in test [4] (20 μg/ml) were about 67, about 46 and about 45, respectively. Also, the “growth of capillary-like tubes versus non-treated control (FIG. 3)” value in test [4] (HAEC passage 7, 22 hours, concentration not given) is reported as “enhanced growth of capillary-like tubes more than that in non-treated control, but less than that in angioenhancin-I treated”. The “capillary-like networks compared to vehicle-treated cells” value in test [4] is recorded as “formed more capillary-like networks”. In addition, the “expressions of angiogenesis-associated genes (VEGF, VEGFR, EGF and FGF), RT-PCR” value in test [5] is “up-regulated”. Further, the “vascular density in treated ischemic hearts versus vehicle-treated hearts (FIG. 4)” value in test [6] is “higher”. Further, the “chronic ischemic heart histology, 2 weeks post LAD partial ligation (FIG. 4)” value in test [6] was “more blood vessels”.
Take pedunculagin [Formula I]: the “differentiation of HUVEC (cell phenotype, FIG. 2)” value in test [1] (20 μg/ml) was “enhanced differentiation showing thin and elongated cells”; in test [1] (40 μg/ml) it was “thin and elongated phenotype forming tube-like structures”. Besides, in test [1], the “differentiation of HUVEC, dose dependence” value is “enhanced differentiation of HUVEC in a dose dependent manner”. Also, the “left ventricle ejection fraction (LVEF)” value in test [2] is given as “progressively restored”. Also, the “left ventricle fraction shortening (LVFS)” value in test [2] was “progressively restored”. For the same compound, in test [3], the “infarcted region histology, 2 weeks post LAD ligation (FIG. 4)” value is “Many newly formed collateral vessels filled with red blood cells were found”. Moreover, the “Approx. No. of Tubes” value is recorded as about 45 in test [4] (5 μg/ml), about 57 in test [4] (10 μg/ml) and about 68 in test [4] (20 μg/ml). Moreover, in test [4] (5 μg/ml, HAEC passage 7, 22 hours), the “growth of capillary-like tube structures versus non-treated control (FIG. 3)” value is listed as “enhanced growth of capillary-like tube structures much more than that in non-treated control”. In test [4], the “capillary-like networks compared to vehicle-treated cells” value is “formed more capillary-like networks”. The “expressions of angiogenesis-associated genes (VEGF, VEGFR, EGF and FGF), RT-PCR” value in test [5] is on record as “up-regulated”. Also, in test [6], the “vascular density in treated ischemic hearts versus vehicle-treated hearts (FIG. 4)” value is reported as “higher”. The “chronic ischemic heart histology, 2 weeks post LAD partial ligation (FIG. 4)” value in test [6] was “more blood vessels”.

The values above are taken from patent US20120077761A1, “COMPOSITIONS AND METHODS FOR THE PREVENTION AND TREATMENT OF CORONARY HEART DISEASES” (Generex Pharmaceuticals, Inc, priority 2009, published 2012).
